Assay results reported in article PMC11021962, “Coupling and regulation mechanisms of the flavin-dependent halogenase PyrH observed by infrared difference spectroscopy” (The Journal of Biological Chemistry, 2024).

Legend:
[1] = biological target: T1, PyrH (Streptomyces rugosporus, UniProt A4D0H5); experiment: light-induced FTIR difference spectroscopy; details: 3 mM compound, FAD-bound enzyme, 20 mM chloride, 35 mM DTT, pH 8.3, 10 °C, anaerobic, 450 nm photoreduction; substrate-binding site, allosterically coupled to FAD site
[2] = biological target: T1, PyrH; experiment: UV-vis spectroscopy after reconstitution and washing; light-induced FTIR difference spectroscopy; format: binding; details: pH 8.3, 20 mM NaCl, 60 mM potassium phosphate

T1 sequence (A4D0H5 whole entry): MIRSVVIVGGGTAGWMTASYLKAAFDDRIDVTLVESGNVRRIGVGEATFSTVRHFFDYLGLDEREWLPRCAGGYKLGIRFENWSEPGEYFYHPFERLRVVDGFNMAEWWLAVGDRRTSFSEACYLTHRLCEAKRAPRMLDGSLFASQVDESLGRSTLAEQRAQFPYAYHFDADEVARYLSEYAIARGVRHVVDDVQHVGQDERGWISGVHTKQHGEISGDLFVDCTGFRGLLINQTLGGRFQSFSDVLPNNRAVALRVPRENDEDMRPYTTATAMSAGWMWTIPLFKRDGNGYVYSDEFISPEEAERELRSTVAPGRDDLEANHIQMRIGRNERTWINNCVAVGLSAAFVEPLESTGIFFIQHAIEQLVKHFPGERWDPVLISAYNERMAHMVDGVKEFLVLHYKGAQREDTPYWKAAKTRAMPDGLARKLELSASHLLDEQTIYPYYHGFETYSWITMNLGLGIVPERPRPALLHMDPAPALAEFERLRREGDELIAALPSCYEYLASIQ

SMILES: N[C@@H](Cc1c[nH]c2ccc(Cl)cc12)C(=O)O [5-chlorotryptophan]
- light-induced FTIR difference spectroscopy [1]: The binding of 5-chlorotryptophan also leads to a reduction of secondary structure changes

SMILES: Cc1cc2nc3c(=O)[nH]c(=O)nc-3n(C[C@H](O)[C@H](O)[C@H](O)COP(=O)(O)OP(=O)(O)OC[C@H]3O[C@@H](n4cnc5c(N)ncnc54)[C@H](O)[C@@H]3O)c2cc1C [FAD]
- UV-vis spectroscopy after reconstitution and washing; light-induced FTIR differe [2]: FAD remained bound to PyrH in all three samples after extensive washing steps

SMILES: N[C@@H](Cc1c[nH]c2ccccc12)C(=O)O [tryptophan]
- light-induced FTIR difference spectroscopy [1]: Tryptophan binding causes a change in the environment of FAD
